In patent publication US9504252B2, “Microbiocides and uses thereof” (Buckman Laboratories International, Inc., priority 2014, dated 2016):
“Also recorded” adds a separate entry of the source.

Key:
[1] = tested on: sulfate reducing bacteria (SRB); assay: kill study, API broth serial dilution (SRB); type: cell-based; details: for API SERIES: SRB count, seven days, 30° C.
Method: (§1) A one gallon sample of cone water from a contaminated drilling fluid (run through a hydrocyclone) in the DJ (Denver-Julesburg Basin) formation was employed for these studies. The cone water pH was measured at 6.4 and the redox potential was at 34.6. The sample included anaerobic sulfate reducing, aerobic and anaerobic acid producing bacteria and general heterotrophic bacteria. Both organism types were present in this sample with the SRB+H2S at levels in excess of 10^12 bacteria per milliliter in the original sample.
(§2) In order to ensure that the active range was captured, the contaminated water was diluted with Butterfield phosphate buffer solution to a concentration of 0.1% of its original concentration. Serial dilutions were made using 1 cc sterile syringes to inoculate 9.0 mL anaerobic American Petroleum Institute (API) broth with an iron nail designed for sulfate reducing bacteria (SRB). In addition, Acid Producing B acteria (APB) and General Heterotrophic Bacteria (GHB) were tested using serial dilutions in 9 mL phenol red (PR) broth. The media salinity was matched to the substrate salinity of ≈0.5% that was measured by percent Total Dissolved Solids (TDS). Additionally, an untreated control was included. In all cases the concentration was determined on a weight/weight basis of parts per million (milligrams per kilogram). Each aliquot was continuously mixed (in a thermally controlled incubator) well after the addition of the biocide and maintained at 30° C. for the duration of study.
(§3) Untreated and treated aliquots were inspected after seven days checking to see if the bottles the API bottles turned black (indicating positive SRB growth) and to see if the PRD bottles turned yellow (indicating the presence of APB) and/or turbidity (indicating the presence of GHB). A color change at the highest dilution indicated the log quantity of organisms present.

[2] = tested on: Acid Producing Bacteria (APB) and General Heterotrophic Bacteria (GHB); assay: kill study, phenol red broth serial dilution (APB/GHB); type: cell-based; details: for PRD SERIES: APB and GHB count, seven days, 30° C.
Method: as §1, §2, §3

## CNC(=S)[S-].[Na+] [SNMDTC, sodium-N-methyldithiocarbamate]
[1]; 1,000 ppm
  decrease in SRB concentration: did not appear to be any noticeable decrease
[1]; 1,000 ppm total biocide
  API SERIES: >10^4
[1]; 10,000 ppm total biocide
  API SERIES: >10^2
[1]; 10,000 ppm, over a period of eight days
  decrease in bacterial concentration of SRB: two
[2]; 1,000 ppm
  decrease in APB/GHB concentration: did not appear to be any noticeable decrease; also recorded: did not have any noticeable effect
[2]; 1,000 ppm total biocide
  PRD SERIES: ≧10^3
[2]; 10,000 ppm total biocide
  PRD SERIES: >10^2
